Results as given in patent US20250228858A1, “ANTI-CANCER COMBINATION THERAPY” (Boehringer Ingelheim International GmbH, priority 2023, published 2025).

Experiments:
[1] = tested on: HER2-overexpressing human NSCLC cell line NCI-H2170; test: NCI-H2170 subcutaneous xenograft, zongertinib with T-DXd; format: in vivo, NMRI-Foxn1^nu mice; settings: day 21, alone or combined; for Regressions >30%: tumors regressed/total (partial response)
Description: The study is performed in human NSCLC cell line NCI-H2170 grown as subcutaneous xenografts in NMRI-Foxn1^nu mice. Day 1 was the first day, day 21 the last day of treatment and final day of analysis.
NCI-H2170 is a HER2-overexpressing NSCLC cell line that can be obtained from the American Type Culture Collection (ATCC #CRL-5928; original vial lot: 4419196). Cells are cultured in T175 tissue culture flasks at 37° C. and 5% CO2. The medium used is RPMI 1640 (ATCC #30-2001) supplemented with 10% fetal bovine serum (FBS) (Gibco #26140079). Cultures are split twice weekly with a ratio of 1:3-1:9.
To establish subcutaneous tumors, NCI-H2170 cells are harvested by centrifugation, washed and resuspended in PBS+5% FCS at 1×10^7 cells/ml. 100 μl cell suspension containing 1×10^6 cells are injected subcutaneously into the right flank of the mice (1 site per mouse).
Tumor volumes and side effects are monitored as described in Example 1 (see paragraph 1.1.6), except that control animals are sacrificed when the median tumor volume of the group reaches a size of approximately 1000 mm^3.
The statistical evaluation of the tumor volume and the body weight is conducted on day 21 (last day of the study). Apart from this, statistical analysis was performed as described in Example 1 (see paragraph 1.1.7), with no evaluation of tumor growth after stop of treatment.

[2] = tested on: HER2-overexpressing human gastric cancer cell line NCI-N87; test: NCI-N87 subcutaneous xenograft, zongertinib with T-DXd; format: in vivo, NMRI-Foxn1^nu mice; settings: for Regressions >30% / TGI: day 22; for Regressions >30%: tumors regressed/total
Description: The study is performed in human gastric cancer cell line NCI-N87 grown as subcutaneous xenografts in NMRI-Foxn1^nu mice. Day 1 was the first day, day 21 the last day of treatment and day 22 the final day of analysis. […]
NCI-N87 is a HER2-overexpressing human gastric cancer cell line that can be obtained from the American Type Culture Collection (ATCC #CRL-5822). Cells are cultured in T175 tissue culture flasks at 37° C. and 5% CO2. The medium used is RPMI 1640 (ATCC #30-2001) supplemented with 10% fetal calf serum (FCS) (Thermo Scientific #SH 30084.03). Cultures are split twice weekly with a ratio of 1:2.
Mice are 6- to 10-week-old female NMRI-Foxn1^nu purchased from Taconic, Denmark. After arrival at the animal facility, mice are allowed to adjust to conditions at least for 5 days before they are used for the experiment. They are housed in Macrolon® type III cages in groups of 8 to 10 under pathogen-free, controlled and standardized conditions at 21.5±1.5° C. temperature, 55±10% humidity and 12-h light-dark cycle. Standardized diet (PROVIMI KLIBA) and autoclaved tap water are provided ad libitum. Subcutaneous microchips implanted under isoflurane anaesthesia are used to identify each mouse. Cage cards showing the study number, the animal identification number, the compound, the dose level, the administration route as well as the schedule remain with the animals throughout the study.
To establish subcutaneous tumors, NCI-N87 cells are harvested by centrifugation, washed and resuspended in PBS+5% FCS at 2.5×10^7 cells/ml. 100 μl cell suspension containing 2.5×10^6 cells is injected subcutaneously into the right flank of the mice (1 site per mouse).
The suspension is used for a maximum of 7 days.
T-DM1 (Kadcyla) can be purchased from Roche.
Mice in the control group are treated with vehicle, i.e.: • (i) 0.5% Natrosol, administered once daily for the duration of the treatment intragastrally by gavage needle with a volume of 10 ml/kg body weight; and • (ii) saline (0.9%), administered once every three weeks intravenously into the tail vein with a volume of 5 ml/kg.
Tumor volumes are measured three times a week with a caliper. The volume of each tumor [in mm^3] is calculated according to the formula: […]
To monitor side effects of treatment, mice are inspected daily for abnormalities and body weight is determined three times a week. […] In addition, animals with tumor sizes exceeding 1500 mm^3 in diameter, with ulcerating tumors or 18% body weight loss are euthanized for ethical reasons.
For a quick overview of possible treatment effects, the median of the tumor volume of each treatment group T is referred to the median of the control C as tumor growth inhibition (TGI) defined as: […]

[3] = tested on: T-DXd-resistant NCI-N87 cells; test: Proliferation assay (CellTiter Glo), T-DXd resistant NCI-N87 cells; format: cell-based, human; settings: 5 days of incubation, in vitro
Description: Per well, 1000 cells are seeded in 40 μL medium in white, sterile 384-well culture plates (TC-treated; PerkinElmer #6007680) and incubated overnight in a humidified incubator at 37° C. and 5% CO2. 0.1% DMSO-control or serial compound dilution in triplicates are added. […] After 5 days of incubation with test compounds, the cells plates are measured upon addition of CellTiter Glo Luminescent Cell Viability Reagent (Promega, #G9243) to assess cell viability. The plates are placed on a shaker for five minutes and additionally incubated for 10 minutes at room temperature to induce cell lysis and to stabilize the luminescent signal. The luminescent signal of each well is measured in an EnSpire Multilabel Plate Reader 658 (PerkinElmer). The dose response curves are fit and visualized using Boehringer Ingelheim's proprietary software MegaLab and PRISM (GraphPad Inc.).

[4] = zongertinib 20 mg/kg qdx21 p.o., T-DXd 3 mg/kg q21dx1 i.v.
[5] = zongertinib 10 mg/kg qdx21 p.o., alone or combined with T-DXd 3 mg/kg q21dx1 i.v.
[6] = zongertinib 20 mg/kg qdx21 p.o., T-DXd 3 mg/kg q21dx1 i.v., alone or combined

With `C=CC(=O)NC1CCN(c2ncc3ncnc(Nc4ccc(Oc5ccc6c(c5)ncn6C)c(C)c4)c3n2)CC1` [Zongertinib, N-{1-[8-({3-methyl-4-[(1-methyl-1H-1,3-benzodiazol-5-yl)oxy]phenyl}amino)-[1,3]diazino [5,4-d]pyrimidin-2-yl]piperidin-4-yl}prop-2-enamide] the stable disease ([1]; number of tumors out of 8, zongertinib 20 mg/kg qdx21, T-DXd 3 mg/kg q21dx1) was 1, the “Regressions >30%” value [1, 4] was 0/8 and the “Regressions >30%” value ([1]; zongertinib 20 mg/kg qdx21 p.o., T-DXd 3 mg/kg q21dx1 i.v., listed as zongertinib) was “no partial responses”. For the same compound, the TGI [1, 4] was 89%, the “Regressions >30%” value [2, 5] was 5/8 and the “Regressions >30%” value [2, 6] was 7/8. The TGI [2, 5] was 114%, the TGI [2, 6] was 123% and the “effect on tumor growth (median tumor volumes over time)” value ([2]; zongertinib 10 or 20 mg/kg/day, T-DXd 3 mg/kg once, 21-day experiment) was “continuously shrank more than those in mice treated with T-DXd”. The “difference in IC50 between parental and T-DXd-resistant NCI-N87 cells” value [3] was “less than 10 fold” and the “sensitivity (dose response, cell viability)” value [3] was “sensitive”.
